Measured values published in paper PMC6471528, “Biological Evaluation and Molecular Docking Studies of Dimethylpyridine Derivatives” (Molecules, 2019).

Experiments:
COX-1 = target: T1, COX-1 (Ovis aries, UniProt P05979); test: COX colorimetric inhibitor screening assay (TMPD oxidation), COX-1; assay type: biochemical; settings: for IC50: read-out: IC50 (µM),(SD) COX-1; for inhibitory activity on COX-1 (in words): 2 min of incubation
T1 construct: purchased Cayman Chemical Company
T1 sequence (P05979 25-600): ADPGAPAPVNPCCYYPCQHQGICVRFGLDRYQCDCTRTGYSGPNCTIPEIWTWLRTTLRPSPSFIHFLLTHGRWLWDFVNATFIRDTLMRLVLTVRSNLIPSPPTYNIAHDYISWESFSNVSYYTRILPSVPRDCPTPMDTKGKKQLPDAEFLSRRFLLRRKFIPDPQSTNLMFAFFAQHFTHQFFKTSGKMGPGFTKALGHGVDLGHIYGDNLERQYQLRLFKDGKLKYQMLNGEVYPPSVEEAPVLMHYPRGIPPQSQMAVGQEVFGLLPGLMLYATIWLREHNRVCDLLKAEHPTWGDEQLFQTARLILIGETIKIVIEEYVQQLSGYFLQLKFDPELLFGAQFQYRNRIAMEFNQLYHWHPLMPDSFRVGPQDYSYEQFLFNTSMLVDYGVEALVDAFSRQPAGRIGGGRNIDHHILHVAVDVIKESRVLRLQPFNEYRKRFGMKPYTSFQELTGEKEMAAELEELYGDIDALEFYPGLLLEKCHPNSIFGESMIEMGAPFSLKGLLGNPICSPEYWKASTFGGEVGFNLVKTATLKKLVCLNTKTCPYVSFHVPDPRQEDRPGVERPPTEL
Method: (§1) The compounds were investigated for their potencies to inhibit COX-1 and COX-2 enzymes by the colorimetric inhibitor screening assay.
(§2) Selectivity of the compounds to COX-1 or to COX-2 was assessed by calculation of the IC50 ratios.
(§3) This method allows one to estimate the peroxidase activity of COX by colorimetric monitoring of the occurrence of the oxidized form of N,N,N′,N′-tetramethyl-p-phenylenediamine (TMPD) at 590 nm. TMPD is a substrate for most enzymes with peroxidase activity, and high throughput microplate assays using TMPD allow the rapid screening of a wide range of therapeutics that inhibit COX activity in vitro.
(§4) The test is based on the oxidation of TMPD during the reduction of PGG2 (prostaglandin G2) to PGH2, which is reflected by a change in colour, measured spectrophotometrically (Victor2 microspectrophotometer, PerkinElmer Waltham, MA, USA). The assay uses Tris-HCl buffer (0.1 M assay buffer, pH 8.0), a solution of heme in dimethylsulfoxide (DMSO), enzymes (COX-1, COX-2), arachidonic acid (100 μM), KOH (0.1 M) and a solution of TMPD. The assay mixture contains: 150 µL of assay buffer, 10 µL of heme and 10 µL of COX-1 or COX-2. In order to determine 100% enzyme activity (each COX sample was assayed in triplicate), 10 µL of the substances used as solvents (methanol, ethanol, DMSO) was added to the wells. Ten microlitres of tested inhibitors at appropriate concentrations were added to the other wells. Twenty microlitres of TMPD were added to all wells. The reaction was initiated by the addition of arachidonic acid.
(§5) The effect of tested inhibitors on COX-1 and COX-2 enzyme activity was measured by assaying the rate of TMPD oxidation within 2 min in a spectrophotometer at 590 nm.
(§6) The activity factor at 2 min of incubation with the tested compounds in comparison to the initial activity of the enzyme was determined.

COX-2 = target: T2, COX-2 (Homo sapiens, UniProt P35354); test: COX colorimetric inhibitor screening assay (TMPD oxidation), COX-2; assay type: biochemical; settings: for Ratio: COX-2/COX-1: ratio of IC50 values COX-2/COX-1; for IC50: read-out: IC50 (µM),(SD) COX-2; for inhibitory activity on COX-2 (in words): 2 min of incubation
T2 construct: purchased Cayman Chemical Company
T2 sequence (P35354 18-604): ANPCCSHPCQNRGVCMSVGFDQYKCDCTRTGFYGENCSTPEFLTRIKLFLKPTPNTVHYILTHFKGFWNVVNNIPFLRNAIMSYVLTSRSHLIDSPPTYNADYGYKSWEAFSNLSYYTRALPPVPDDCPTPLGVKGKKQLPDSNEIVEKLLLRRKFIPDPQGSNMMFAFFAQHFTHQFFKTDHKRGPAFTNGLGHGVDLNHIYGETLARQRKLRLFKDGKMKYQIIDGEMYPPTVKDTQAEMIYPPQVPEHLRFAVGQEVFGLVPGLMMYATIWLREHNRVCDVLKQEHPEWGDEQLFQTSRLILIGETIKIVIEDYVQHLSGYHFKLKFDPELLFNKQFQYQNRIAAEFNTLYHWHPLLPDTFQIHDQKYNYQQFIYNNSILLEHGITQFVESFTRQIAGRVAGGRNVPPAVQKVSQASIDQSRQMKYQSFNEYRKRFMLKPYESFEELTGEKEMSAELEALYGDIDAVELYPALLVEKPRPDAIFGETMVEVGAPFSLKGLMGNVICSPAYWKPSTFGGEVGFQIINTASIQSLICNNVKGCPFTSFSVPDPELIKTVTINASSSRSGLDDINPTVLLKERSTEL
Method: as §1, §2, §3, §4, §5, §6

[1] = test system: NHDF (normal human dermal fibroblasts); test: Sulforhodamine B cytotoxicity assay, NHDF; assay type: cell-based; settings: SRB assay, 48 h, mean (SD), n = 3
Source text: (§7) The sulforhodamine B assay was used to estimate the cytotoxic properties of the compounds. The cytotoxic activity of dimethylpyridine derivatives was studied against human cancer cell lines: A549 (pulmonary basal cell alveolar adenocarcinoma) and LoVo (colon adenocarcinoma). Additionally, the effect of compounds on NHDF (normal human dermal fibroblasts) and normal cell line V79 (fibroblast from Chinese hamster lung) was examined.
(§8) Normal human dermal fibroblasts (NHDF) from adult donors were purchased from Lonza (Verviers, Belgium). Normal cell line V79 (fibroblast from Chinese hamster lung) and human cancer cell lines, A549 (pulmonary basal cell alveolar adenocarcinoma) and LoVo (colon adenocarcinoma) were obtained from the European Collection of Authenticated Cell Cultures (ECACC).
(§9) Cells were grown in the culture media recommended by the cell line supplier. Before the test, adherent cells were detached with the trypsin EDTA solution, and FBS-containing medium was used to neutralize the effects of the trypsin/EDTA solution. After that, cells were spun down, counted, stained with a 0.4% solution of trypan blue and inspected under a microscope for cell viability. Then, cells were placed on 96-well plastic culture plates (2 × 10^3 cells/well) and incubated at 37 °C in a CO2-incubator for 24 h. Afterwards, all the tested compounds were added at appropriate final concentrations (100 µM, 50 µM, 20 µM, 10 µM, 5 µM), and the cultures were incubated for 48 h in CO2-incubator at 37 °C. Finally, cells were harvested and intended for the cell proliferation test.
(§10) Cell density/cell proliferation was estimated with the sulforhodamine B (SRB)-colorimetric assay. Briefly, cell cultures were fixed with cold TCA (final concentration 10% (w/v) in cultures of adherent cells for 1 h at 4 °C, then washed four times with tap water and air-dried at room temperature (20–25 °C). A mildly-acidic SRB solution (0.4% dye solution in 1% acetic acid) was added to each well for 30 min at 25 °C. Then, the unbound stain was removed by rinsing with an aqueous solution of 1% (v/v) acetic acid. Culture plates were then allowed to dry at room temperature. The protein-bound dye was dissolved in 10 mM Tris base solution (pH 10.5) for 10 min on a gyratory shaker. Absorbance of the SRB solution was estimated at 540 nm in a Victor 2 microplate reader (Perkin-Elmer, Waltham, MA, USA).

[2] = test system: V79 (fibroblast from Chinese hamster lung); test: Sulforhodamine B cytotoxicity assay, V79; assay type: cell-based; settings: Cricetulus griseus, SRB assay, 48 h, mean (SD), n = 3
Source text: as §7, §8, §9, §10

[3] = test system: LoVo (colon adenocarcinoma); test: Sulforhodamine B cytotoxicity assay, LoVo; assay type: cell-based; settings: Homo sapiens, SRB assay, 48 h, mean (SD), n = 3
Source text: as §7, §8, §9, §10

[4] = test system: A549 (pulmonary basal cell alveolar adenocarcinoma); test: Sulforhodamine B cytotoxicity assay, A549; assay type: cell-based; settings: Homo sapiens, SRB assay, 48 h, mean (SD), n = 3
Source text: as §7, §8, §9, §10

**Q.** Which IC50 (COX-1) does the source give for CCOc1ccccc1/C=N/NC(=O)CNC(=O)c1c(C)cc(C)nc1S [PS42] here?
**A.** 72.8 µM

**Q.** What about the “Ratio: COX-2/COX-1” value (COX-2) of the same compound?
**A.** 2.4

**Q.** What about the IC50 (COX-2) of the same compound?
**A.** 177 µM

**Q.** What about the IC50 [1] of the same compound?
**A.** 132 µM

**Q.** And the IC50 [2]?
**A.** 162 µM

**Q.** What about the IC50 [3] of the same compound?
**A.** 133 µM

**Q.** What about the IC50 [4] of the same compound?
**A.** 140 µM

**Q.** Which IC50 (COX-1) does the source give for Cc1cc(C)c(C(=O)NCC(=O)N/N=C/c2ccccc2)c(S)n1 [PS18, N′-phenylmethylene derivative] here?
**A.** 57.3 µM

**Q.** And the “Ratio: COX-2/COX-1” value (COX-2)?
**A.** 2.4

**Q.** And the IC50 (COX-2)?
**A.** 139 µM

**Q.** What about the IC50 [1] of the same compound?
**A.** 171 µM

**Q.** And the IC50 [2]?
**A.** 275 µM

**Q.** And the IC50 [3]?
**A.** 135 µM

**Q.** What about the IC50 [4] of the same compound?
**A.** 154 µM

**Q.** How did the “inhibitory activity on COX-1 (in words)” value (COX-1) turn out when Cc1cc(C)c(C(=O)NCC(=O)N/N=C/c2ccc([N+](=O)[O-])cc2)c(S)n1 [PS36] was run?
**A.** did not show any inhibitory activity

**Q.** And the IC50 (COX-2)?
**A.** 731 µM

**Q.** What about the IC50 [1] of the same compound?
**A.** 144 µM

**Q.** And the IC50 [2]?
**A.** 141 µM

**Q.** And the IC50 [3]?
**A.** 99.8 µM

**Q.** And the IC50 [4]?
**A.** 164 µM

**Q.** How did the IC50 (COX-1) turn out when Cc1ccc(/C=N/NC(=O)CNC(=O)c2c(C)cc(C)nc2S)cc1 [PS33, N′-4-methylphenylmethylene derivative] was run?
**A.** 51.8 µM

**Q.** What about the “Ratio: COX-2/COX-1” value (COX-2) of the same compound?
**A.** 2.8

**Q.** And the IC50 (COX-2)?
**A.** 143 µM

**Q.** What about the IC50 [1] of the same compound?
**A.** 159 µM

**Q.** What about the IC50 [2] of the same compound?
**A.** 178 µM

**Q.** What about the IC50 [3] of the same compound?
**A.** 131 µM

**Q.** And the IC50 [4]?
**A.** 156 µM

**Q.** Which “inhibitory activity on COX-1 (in words)” value (COX-1) does the source give for Cc1cc(C)c(C(=O)NCC(=O)N/N=C/c2ccc(C(F)(F)F)cc2)c(S)n1 [PS38] here?
**A.** no inhibitory activity

**Q.** What about the “inhibitory activity on COX-2 (in words)” value (COX-2) of the same compound?
**A.** no inhibitory activity

**Q.** And the IC50 [2]?
**A.** 172 µM

**Q.** And the IC50 [4]?
**A.** 504 µM

**Q.** Cc1cc(C)c(C(=O)NCC(=O)N/N=C/c2c3ccccc3cc3ccccc23)c(S)n1 [PS35] was tested. Which “inhibitory activity on COX-1 (in words)” value (COX-1) did it give?
**A.** no inhibitory activity

**Q.** What about the “inhibitory activity on COX-2 (in words)” value (COX-2) of the same compound?
**A.** no inhibitory activity

**Q.** And the IC50 [1]?
**A.** 202 µM

**Q.** What about the IC50 [2] of the same compound?
**A.** 196 µM

**Q.** What about the IC50 [3] of the same compound?
**A.** 212 µM

**Q.** With Cc1cc(C)c(C(=O)NCC(=O)N/N=C/c2cc([N+](=O)[O-])ccc2Cl)c(S)n1 [PS39] as the compound, how does the “inhibitory activity on COX-1 (in words)” value (COX-1) read?
**A.** no inhibitory activity

**Q.** What about the “inhibitory activity on COX-2 (in words)” value (COX-2) of the same compound?
**A.** no inhibitory activity

**Q.** What about the IC50 [1] of the same compound?
**A.** 391 µM

**Q.** What about the IC50 [2] of the same compound?
**A.** 147 µM

**Q.** What about the IC50 [3] of the same compound?
**A.** 103 µM

**Q.** And the IC50 [4]?
**A.** 120 µM

**Q.** With Cc1cc(C)c(C(=O)NCC(=O)N/N=C/c2ccc(Cl)cc2Cl)c(S)n1 [PS41] as the compound, how does the “inhibitory activity on COX-1 (in words)” value (COX-1) read?
**A.** no inhibitory activity

**Q.** And the “inhibitory activity on COX-2 (in words)” value (COX-2)?
**A.** no inhibitory activity

**Q.** And the IC50 [1]?
**A.** 336 µM

**Q.** What about the IC50 [2] of the same compound?
**A.** 418 µM

**Q.** And the IC50 [3]?
**A.** 154 µM

**Q.** And the IC50 [4]?
**A.** 220 µM

**Q.** Which results are given for Cc1cnc(NC(=O)C2=C(O)c3ccccc3S(=O)(=O)N2C)s1 [Meloxicam, reference compound]?
**A.** IC50 [1]: 206 µM; IC50 [2]: 232 µM; IC50 [3]: 125 µM; IC50 [4]: 148 µM

**Q.** Cc1cc(C)c(C(=O)NCC(=O)N/N=C/c2cccc3ccccc23)c(S)n1 [PS34, N′-naphtylmethylene derivative] was tested. Which “inhibitory activity on COX-1 (in words)” value (COX-1) did it give?
**A.** no inhibitory activity

**Q.** What about the “inhibitory activity on COX-2 (in words)” value (COX-2) of the same compound?
**A.** no inhibitory activity

**Q.** What about the IC50 [2] of the same compound?
**A.** 421 µM

**Q.** Which IC50 [2] does the source give for CN1C(C(=O)Nc2ccccn2)=C(O)c2ccccc2S1(=O)=O [Piroxicam, reference compound] here?
**A.** 200 µM

**Q.** What about the IC50 [3] of the same compound?
**A.** 122 µM

**Q.** And the IC50 [4]?
**A.** 138 µM
